We go through one compound from EP0897904B1, “Fungicidal 2-methoxybenzophenones” (BASF AKTIENGESELLSCHAFT, priority 1997, dated 1999).

Molecules are shown by their SMILES. Read-outs that look alike come from different tables or passages of the source.

What all share (format): in vivo
The test system of assay [1] is Blumeria (Erysiphe) graminis DC. f.sp. tritici E. Marchal. As to the kind of experiment: Foliar systemicity test, wheat powdery mildew (band application on leaf). Conditions: typically 400 ppm. The text has this: Wheat Powdery Mildew (WPM): HOST: Wheat (Triticum aestivum L.) variety Kanzler PATHOGEN: Blumeria (Erysiphe) graminis DC. f.sp. tritici E. Marchal
• 1. Wheat seed (8/pot) is planted in 8 cm diameter plastic pots in the greenhouse. • 2. When the primary leaf is fully expanded, the plants are cut back to four in each pot of which two are marked with a permanent marker 5 cm below the leaf tip on the upper leaf surface. Thus there are two band-treated and two untreated plants in each pot. • 3. A pipette is used to apply 5 µl of the formulated compound in a band on the lower leaf surface opposite the mark. The application band should cover the whole leaf width. After application, the plants are not moved until the bands are dry (half an hour or so later). • 4. After treated plants have dried, they are moved to the greenhouse and kept there for 2 days to allow for movement of the compounds. The plants are maintained with bottom watering. • 5. Two days after application, the plants are inoculated by dusting them with powdery mildew conidia in the greenhouse. Evaluations are typically made 7 - 8 days after inoculation.
Three types of compound movement are assessed by evaluating disease in three areas of each band-treated leaf. Translaminar movement: The percent disease area is assessed for the translaminar band area (marked area of the upper leaf surface directly opposite where band was applied on the lower leaf surface; width of band approximately 5 mm). Translaminar disease control is then calculated using the following formula: % disease control = 100 -(% disease in treated plants)/(% disease in untreated plants)x 100 [formula]
Distal movement and proximal movement: The distal and proximal disease-free zones on the upper leaf surface are measured in mm. The distal direction is from the band toward the leaf apex and the proximal direction is from the band toward the leaf base. The percent of the disease-free zone relative to the entire distance between the band and leaf apex or base is calculated. If disease is noticeably lighter in the distal or proximal area this is also noted.
• 1. […]

Assay [2] shares this test system. As to the kind of experiment: Zero day protectant test, Wheat Powdery Mildew (WPM). Conditions: wheat variety Kanzler, 0 day protectant test, side-by-side, technical material in 0.5% acetone 0.05% Tween 20 water. The source says:
(§1) • (a) Wheat Powdery Mildew (WPM): HOST: Wheat (Triticum aestivum L.) variety Kanzler PATHOGEN: Blumeria (Erysiphe) graminis DC. f.sp. tritici E. Marchal • (b) Barley Powdery Mildew (BPM): HOST: Barley (Hordeum vulgare L.) variety Golden Promise PATHOGEN: Blumeria (Erysiphe) graminis DC. f.sp. hordei E. Marchal
(§2) This test is a zero day protectant test for control of wheat and barley powdery mildews. • 1. Wheat or barley seed (approximately 8-10/pot) is planted in 6 cm diameter plastic pots and maintained in the greenhouse. • 2. When the primary leaf is fully expanded, formulated test compounds are sprayed with a single nozzle overhead track sprayer at a rate of 200 l/ha. Plants are then allowed to air-dry. • 3. Inoculation follows about three hours after compound application. Plants are set up on greenhouse benches with bottom watering mats and inoculated by dusting them with conidia from powdery mildew infected plants (stock cultures at an age of 10-14 days). • 4. Disease on the primary leaf as percent leaf area with disease symptoms/signs is evaluated about 7 days after inoculation. The tips and bases of the leaves are excluded from the evaluation. Percent disease control is then calculated by the following formula: % disease control = 100 -(% infection in treated plants)/(% infection in untreated plants)x 100 [formula]
(§3) • 1. Technical compounds are formulated in a solvent/surfactant system consisting of […] acetone and 0.05% Tween 20 in deionized water. Compounds are dissolved in acetone prior to addition of the water; the Tween 20 can be added through either the acetone or the water. Dilutions are made using the solvent/surfactant system. Test compounds are typically tested over a range of concentrations covering several orders of magnitude and then ED values are calculated for comparison of compounds. Formulated compounds are prepared using deionized water. • 2. Two kinds of controls are included: • Plants treated with the solvent/surfactant solution and inoculated (Solvent Blank). • Untreated plants which are inoculated (Inoculated Control).
(§4) Compounds applied as technical material formulated in 0.5% acetone 0.05% Tween 20 water

In assay [3] the test system is Erysiphe cichoracearum DC. As to the kind of experiment: Curative and residual control test, Cucumber Powdery Mildew (QPM). To be noted: Golovinomyces cichoracearum, 72 h, read-out: Disease control (% efficacy); for Emax at 12.5 ppm: QPM 3 da R (3 day residual), 12,5 ppm; for Emax at 125 ppm / Emax at 1250 ppm: QPM 3 da R (3 day residual). The text has this: • (a) Wheat Powdery Mildew (WPM): HOST: Wheat (Triticum aestivum L.) variety Kanzler PATHOGEN: Blumeria (Erysiphe) graminis DC. f.sp. tritici E. Marchal • (b) Cucumber Powdery Mildew (QPM): HOST: Cucumber (Cucumis sativus L.) variety Bush pickle PATHOGEN: Erysiphe cichoracearum DC
This test procedure is for curative and residual control of powdery mildew diseases. • 1. Wheat seed (approximately 8-10/pot) or cucumber seed (1 seed / pot) is planted in 6 cm diameter plastic pots and maintained in the greenhouse. • 2. When the primary leaf (wheat) or the cotyledons (cucumber) is/are fully expanded, formulated test compounds are sprayed with a single nozzle overhead track sprayer at a rate of 200 l/ha. Plants are then allowed to air-dry. • 3. Inoculation precedes treatment by 2 or 3 days in the case of curative evaluations and follows treatment by 3 or 4 days in case of residual evaluations. For inoculation, plants are set up on greenhouse benches with bottom watering mats and inoculated by dusting them with conidia from powdery mildew infected plants (stock cultures at an age of 10-14 days). Between inoculation and treatment for curative evaluations and between treatment and inoculation for residual evaluations, plants are maintained in the greenhouse with bottom watering. • 4. Disease on the primary leaf (wheat) or on the cotyledons (cucumber) as percent leaf area with disease symptoms/signs is evaluated about 7 days after inoculation. In the case of wheat, the tips and bases of the leaves are excluded from the evaluation. Percent disease control is then calculated by the following formula: % disease control = 100 -(% infection in treated plants)/(% infection in untreated plants)x 100 [formula]
• 1. Technical compounds are formulated in a solvent/surfactant system consisting of 5% acetone and 0.05% Tween 20 in deionized water. Compounds are dissolved in acetone prior to addition of the water; the Tween 20 can be added through either the acetone or the water. Dilutions are made using the solvent/surfactant system. Formulated compounds are prepared using deionized water. • 2. Two kinds of controls are included: • Plants treated with the solvent/surfactant solution and inoculated (Solvent Blank). • Untreated plants which are inoculated (Inoculated Control).

For assay [4], the system named is Blumeria (Erysiphe) graminis DC. f.sp. hordei E. Marchal. As to the kind of experiment: Zero day protectant test, Barley Powdery Mildew (BPM). To be noted: barley variety Golden Promise, 0 day protectant test, side-by-side, technical material in 0.5% acetone 0.05% Tween 20 water.
From the text: as §1, §2, §3, §4

As to `COc1cc(C)c(C(=O)c2c(C)cccc2OC)c(OC)c1OC` [Example 1, 6,6'-dimethyl-2,2',3',4'-tetramethoxy-benzophenone], the “Translaminar Activity ( % )” value in assay [1] (% disease control in translaminar band area, wheat variety Kanzler) is 100%. Besides, the “Distal Movement (mm from band)” value in assay [1] (disease-free zone on wheat leaf (variety Kanzler) from band toward leaf apex, 5 µl band, inoculated 2 days after application) is recorded as 50 mm. In addition, the “Proximal Movement (mm from band)” value in assay [1] (disease-free zone on wheat leaf (variety Kanzler) from band toward leaf base, 5 µl band, inoculated 2 days after application) was 10 mm. In addition, in assay [2], the “ED90 (ppm)” value is 4 ppm. Further, in assay [3] (Test A), the Emax at 12.5 ppm turned out to be 2%, the Emax at 125 ppm is 5% and the Emax at 1250 ppm came out at 100%. Moreover, in assay [3] (Test B), the Emax at 12.5 ppm was 3%, the Emax at 125 ppm was found to be 61% and the Emax at 1250 ppm was determined as 100%. For the same compound, the “ED90 (ppm)” value in assay [4] is recorded as 6 ppm.
